Experimental data taken from PubChem BioAssay AID248 (DTP/NCI, 2004).
“And” between values parts separate entries of the source, which are not always exact repeats. Identical values can stand only once. Inconclusive results and toxic doses are left out. Cut-off read from the data, not from the text of the source: active = T/C of 150% or more; inactive = T/C below 125%.

System: L1210 leukemia ip in BDF1 mice, survival T/C
Experiment: NCI In Vivo Anticancer Drug Screen. Data for tumor model L1210 Leukemia (intraperitoneal) in B6D2F1 (BDF1) mice
Details: endpoint: mean survival time, higher = longer survival
Method in brief: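 Survival endpoint. Drug-treated group vs vehicle group, expressed as T divided by C. Tumor passaged by transplantation.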

[1] = dose: 100.0 mg/kg/injection, schedule: Q01DX009 (ip), vehicle: Klucel (hydroxypropylcellulose) (HPC)
[2] = dose: 200.0 mg/kg/injection, schedule: Q01DX009 (ip), vehicle: Klucel (hydroxypropylcellulose) (HPC)
[3] = dose: 100.0 mg/kg/injection, schedule: Q04DX003 (ip), vehicle: saline with Tween-80
[4] = dose: 200.0 mg/kg/injection, schedule: Q04DX003 (ip), vehicle: saline with Tween-80
[5] = dose: 20.0 mg/kg/injection, schedule: Q01DX009 (ip), vehicle: saline
[6] = dose: 100.0 mg/kg/injection, schedule: Q04DX002 (ip), vehicle: Klucel (hydroxypropylcellulose) (HPC)
[7] = dose: 200.0 mg/kg/injection, schedule: Q04DX002 (ip), vehicle: Klucel (hydroxypropylcellulose) (HPC)
[8] = dose: 400.0 mg/kg/injection, schedule: Q04DX002 (ip), vehicle: Klucel (hydroxypropylcellulose) (HPC)
[9] = dose: 200.0 mg/kg/injection, schedule: Q01DX009 (ip), vehicle: saline with Tween-80
[10] = dose: 100.0 mg/kg/injection, schedule: Q04DX003 (ip), vehicle: Klucel (hydroxypropylcellulose) (HPC)
[11] = dose: 200.0 mg/kg/injection, schedule: Q04DX003 (ip), vehicle: Klucel (hydroxypropylcellulose) (HPC)
[12] = dose: 100.0 mg/kg/injection, schedule: Q01DX009 (ip), vehicle: saline

Measured: T/C

CC(CC(=O)c1ccc(F)cc1)N1CCCCC1 (configuration not stated)
inactive: dose: 100.0 mg/kg/injection, schedule: Q01DX001 (ip), vehicle: carboxymethylcellulose (CMC) 95 % of control | dose: 200.0 mg/kg/injection, schedule: Q01DX001 (ip), vehicle: carboxymethylcellulose (CMC) 98 % of control

CC1(C)N=C(N)N=C(N)N1c1ccc(OCCCNS(=O)(=O)c2ccc(S(=O)(=O)F)cc2)c(Cl)c1
inactive: dose: 37.5 mg/kg/injection, schedule: Q04DX003 (ip), vehicle: saline with Tween-80 103 % of control | dose: 75.0 mg/kg/injection, schedule: Q04DX003 (ip), vehicle: saline with Tween-80 108 % of control | dose: 150.0 mg/kg/injection, schedule: Q04DX003 (ip), vehicle: saline with Tween-80 107 % of control

Cn1cnc([N+](=O)[O-])c1S(=O)(=O)NCN1CCOCC1
inactive: dose: 25.0 mg/kg/injection, schedule: Q01DX009 (ip), vehicle: Klucel (hydroxypropylcellulose) (HPC) 117 % of control | [1] 113 % of control | [2] 113 % of control

NC(=S)N/N=C/c1ccc2c(c1)OCO2
inactive: [3] 95 % of control | [4] 103 % of control

N#CCCNC=O
inactive: dose: 100.0 mg/kg/injection, schedule: Q04DX002 (ip), vehicle: saline 109 % of control | dose: 200.0 mg/kg/injection, schedule: Q04DX002 (ip), vehicle: saline 98 % of control | dose: 400.0 mg/kg/injection, schedule: Q04DX002 (ip), vehicle: saline 109 % of control

O=C(O)CCCCCN1C(=O)c2cccc([N+](=O)[O-])c2C1=O
inactive: dose: 100.0 mg/kg/injection, schedule: Q01DX001 (ip), vehicle: saline with Tween-80 110 % of control | dose: 200.0 mg/kg/injection, schedule: Q01DX001 (ip), vehicle: saline with Tween-80 109 % of control

O=[N+]([O-])NC(=NCCNc1ccccc1)Nc1ccccc1
inactive: dose: 100.0 mg/kg/injection, schedule: Q04DX002 (ip), vehicle: gum acacia 98 % of control | dose: 200.0 mg/kg/injection, schedule: Q04DX002 (ip), vehicle: gum acacia 98 % of control | dose: 400.0 mg/kg/injection, schedule: Q04DX002 (ip), vehicle: gum acacia 88 % of control

CCC1CCN(CC)CC1
inactive: dose: 10.0 mg/kg/injection, schedule: Q01DX001 (ip), vehicle: saline 101 % of control | dose: 10.0 mg/kg/injection, schedule: Q01DX009 (ip), vehicle: saline 92 % of control and 102 % of control | dose: 10.0 mg/kg/injection, schedule: Q04DX002 (ip), vehicle: saline 100 % of control and 109 % of control | dose: 10.0 mg/kg/injection, schedule: Q04DX003 (ip), vehicle: saline 102 % of control | dose: 20.0 mg/kg/injection, schedule: Q01DX001 (ip), vehicle: saline 101 % of control | [5] 101 % of control and 108 % of control | dose: 20.0 mg/kg/injection, schedule: Q04DX002 (ip), vehicle: saline 100 % of control and 117 % of control | dose: 20.0 mg/kg/injection, schedule: Q04DX003 (ip), vehicle: saline 103 % of control | dose: 40.0 mg/kg/injection, schedule: Q01DX001 (ip), vehicle: saline 95 % of control | dose: 40.0 mg/kg/injection, schedule: Q01DX009 (ip), vehicle: saline 94 % of control | dose: 40.0 mg/kg/injection, schedule: Q04DX002 (ip), vehicle: saline 94 % of control and 102 % of control | dose: 40.0 mg/kg/injection, schedule: Q04DX003 (ip), vehicle: saline 102 % of control

CCOC(=O)N1Cc2cc3cc4c(cc3nc2C1)OCO4
inactive: dose: 100.0 mg/kg/injection, schedule: Q04DX003 (ip), vehicle: saline 94 % of control | dose: 200.0 mg/kg/injection, schedule: Q04DX003 (ip), vehicle: saline 94 % of control | dose: 400.0 mg/kg/injection, schedule: Q04DX003 (ip), vehicle: saline 96 % of control

OC12CCCCC1C[n+]1ccccc1C2 (configuration not stated)
inactive: dose: 100.0 mg/kg/injection, schedule: Q01DX001 (ip), vehicle: saline 101 % of control

CC(C)OC(=O)Nc1cccc(Br)c1
inactive: [6] 92 % of control | [7] 106 % of control | [8] 95 % of control

CCCCS(=O)(=O)N1CCCC(C)C1 (configuration not stated)
inactive: [6] 100 % of control | [7] 107 % of control | [8] 103 % of control

CCOC(=O)CNC(=O)Oc1cc(C)cc(C)c1C
inactive: dose: 100.0 mg/kg/injection, schedule: Q01DX009 (ip), vehicle: saline with Tween-80 98 % of control | [9] 100 % of control | dose: 400.0 mg/kg/injection, schedule: Q01DX009 (ip), vehicle: saline with Tween-80 98 % of control

CC1=NCCc2ccccc21
inactive: dose: 6.25 mg/kg/injection, schedule: Q01DX009 (ip), vehicle: saline 92 % of control | dose: 12.5 mg/kg/injection, schedule: Q01DX009 (ip), vehicle: saline 95 % of control | dose: 25.0 mg/kg/injection, schedule: Q01DX009 (ip), vehicle: saline 90 % of control

CC(=O)OC(OC(C)=O)c1ccccc1
inactive: [6] 106 % of control | [7] 110 % of control | [8] 103 % of control

CN(C)N=Nc1ccc(C(=O)N/N=C/c2cccc([N+](=O)[O-])c2)cc1
inactive: dose: 50.0 mg/kg/injection, schedule: Q04DX003 (ip), vehicle: Klucel (hydroxypropylcellulose) (HPC) 92 % of control | [10] 106 % of control | [11] 92 % of control

NC(=O)CCC(NC(=O)OCc1ccccc1)C(=O)O (configuration not stated)
inactive: [1] 91 % of control | [6] 97 % of control | [2] 112 % of control | [7] 97 % of control | dose: 400.0 mg/kg/injection, schedule: Q01DX009 (ip), vehicle: Klucel (hydroxypropylcellulose) (HPC) 109 % of control | [8] 105 % of control

CCCCCCCCCCC(=O)CCCCCC
inactive: dose: 100.0 mg/kg/injection, schedule: Q01DX009 (ip), vehicle: other 98 % of control | dose: 200.0 mg/kg/injection, schedule: Q01DX009 (ip), vehicle: other 100 % of control | dose: 400.0 mg/kg/injection, schedule: Q01DX009 (ip), vehicle: other 107 % of control

CC1(C)N=C(N)N=C(N)N1c1ccc(CC(=O)Nc2ccc(S(=O)(=O)F)cc2)cc1
inactive: dose: 0.8 mg/kg/injection, schedule: Q01DX009 (ip), vehicle: saline 95 % of control | dose: 4.0 mg/kg/injection, schedule: Q01DX009 (ip), vehicle: saline 95 % of control | [5] 97 % of control | [12] 97 % of control | dose: 500.0 mg/kg/injection, schedule: Q01DX009 (ip), vehicle: saline 94 % of control

COc1ccc(COC(=O)Nc2cc(C(F)(F)F)ccc2Cl)cc1
inactive: [12] 100 % of control | dose: 200.0 mg/kg/injection, schedule: Q01DX009 (ip), vehicle: saline 107 % of control | dose: 400.0 mg/kg/injection, schedule: Q01DX009 (ip), vehicle: saline 105 % of control

CC(C)CC(NC(=O)c1ccccc1)C(=O)O (configuration not stated)
inactive: [9] 88 % of control | dose: 264.0 mg/kg/injection, schedule: Q01DX009 (ip), vehicle: saline with Tween-80 97 % of control | dose: 600.0 mg/kg/injection, schedule: Q01DX009 (ip), vehicle: saline with Tween-80 92 % of control

CCN(CC)C(=S)c1ccc(C(=S)N(CC)CC)cc1
inactive: [10] 91 % of control | [11] 93 % of control | dose: 400.0 mg/kg/injection, schedule: Q04DX003 (ip), vehicle: Klucel (hydroxypropylcellulose) (HPC) 93 % of control

CCOC(=O)C12CCC(C1=O)C(C)(O)CC2 (configuration not stated)
inactive: [3] 108 % of control | [4] 97 % of control
